Measured values published in ChEMBL document CHEMBL1125071, “Quinazoline antifolate thymidylate synthase inhibitors: alkyl, substituted alkyl, and aryl substituents in the C2 position” (J Med Chem, 1990).
In brackets after ≈: the same amount, converted by molar mass.

Columns and labels:
L1210 = test: Concentration required to inhibit 50 percent growth of L1210 mouse leukemia cells; assay type: functional, cell-based
Thymidylate synthase = Thymidylate synthase (Mus musculus, UniProt P07607); test: Concentration required for in vitro inhibition of thymidylate synthase
Sequence of Thymidylate synthase (P07607 whole entry): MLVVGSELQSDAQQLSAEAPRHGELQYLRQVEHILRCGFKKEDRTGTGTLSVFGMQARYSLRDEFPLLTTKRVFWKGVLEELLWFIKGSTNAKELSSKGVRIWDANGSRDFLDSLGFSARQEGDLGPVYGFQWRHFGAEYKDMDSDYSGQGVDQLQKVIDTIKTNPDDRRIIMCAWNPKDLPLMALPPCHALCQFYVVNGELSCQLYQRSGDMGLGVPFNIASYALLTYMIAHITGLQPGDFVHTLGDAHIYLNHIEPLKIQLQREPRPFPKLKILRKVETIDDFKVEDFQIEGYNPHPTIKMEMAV

[1] = pKa of nitrogen -1(N1) of the compound; assay type: physicochemical
[2] = pKa of nitrogen -3(N3) of the compound; assay type: physicochemical
[3] = pKa of nitrogen -1(N1) of the compound; too low to measure accurately; assay type: physicochemical
[4] = Solubility in […] M aqueous NaH2PO4 buffer at pH 7.0 and 25 degree C; assay type: physicochemical; conditions: 0.92 M aqueous NaH2PO4 buffer

SMILES | IC50 (L1210) [nM] | IC50 (Thymidylate synthase) [nM] | other results
Cc1nc2ccc(CN(C)c3ccc(C(=O)N[C@@H](CCC(=O)O)C(=O)O)cc3)cc2c(=O)[nH]1 | 110 | 300 | 
Cc1ccc2nc(N)nc(O)c2c1 |  |  | pKa [1]: 4.2; pKa [2]: 9.4
COCCN(Cc1ccc2nc(C)[nH]c(=O)c2c1)c1ccc(C(=O)N[C@@H](CCC(=O)O)C(=O)O)cc1 | 40000 | 16300 | 
Cc1nc2ccc(CN(CCCO)c3ccc(C(=O)N[C@@H](CCC(=O)O)C(=O)O)cc3)cc2c(=O)[nH]1 | 1240 | 540 | 
CCN(Cc1ccc2nc(CO)[nH]c(=O)c2c1)c1ccc(C(=O)N[C@@H](CCC(=O)O)C(=O)O)cc1 | 16000 |  | 
C=CCN(Cc1ccc2nc(CO)[nH]c(=O)c2c1)c1ccc(C(=O)N[C@@H](CCC(=O)O)C(=O)O)cc1 | 6600 |  | 
Cc1nc2ccc(CNc3ccc(C(=O)N[C@@H](CCC(=O)O)C(=O)O)cc3)cc2c(=O)[nH]1 | 70 | 4500 | 
Cc1ccc2nc(C(F)F)nc(O)c2c1 |  |  | pKa [3]: < 2; pKa [2]: 7.2
Cc1nc2ccc(CN(CCO)c3ccc(C(=O)N[C@@H](CCC(=O)O)C(=O)O)cc3)cc2c(=O)[nH]1 | 240 | 500 | 
CCc1nc2ccc(CNc3ccc(C(=O)N[C@@H](CCC(=O)O)C(=O)O)cc3)cc2c(=O)[nH]1 | 3200 | 20000 | 
C#CCN(Cc1ccc2nc(CC)[nH]c(=O)c2c1)c1ccc(C(=O)N[C@@H](CCC(=O)O)C(=O)O)cc1 | 2500 |  | 
C#CCN(Cc1ccc2nc(C(F)F)nc(O)c2c1)c1ccc(C(=O)N[C@@H](CCC(=O)O)C(=O)O)cc1 | 24000 |  | 
CC(=O)CN(Cc1ccc2nc(C)[nH]c(=O)c2c1)c1ccc(C(=O)N[C@@H](CCC(=O)O)C(=O)O)cc1 | 1200 | 25000 | 
Cc1nc2ccc(CN(CCS)c3ccc(C(=O)N[C@@H](CCC(=O)O)C(=O)O)cc3)cc2c(=O)[nH]1 | > 100000 | 1760 | 
CCN(Cc1ccc2nc(C)[nH]c(=O)c2c1)c1ccc(C(=O)N[C@@H](CCC(=O)O)C(=O)O)cc1 | 360 | 170 | 
Cc1ccc2nc(C)nc(O)c2c1 |  |  | pKa [1]: 3.5; pKa [2]: 10.2
COCCCN(Cc1ccc2nc(C)[nH]c(=O)c2c1)c1ccc(C(=O)N[C@@H](CCC(=O)O)C(=O)O)cc1 | > 100000 | 12900 | 
O=C(O)CC[C@H](NC(=O)c1ccc(N(CCO)Cc2ccc3nc(CO)[nH]c(=O)c3c2)cc1)C(=O)O | 14500 |  | 
Cc1nc2ccc(CN(CCBr)c3ccc(C(=O)N[C@@H](CCC(=O)O)C(=O)O)cc3)cc2c(=O)[nH]1 | 820 | 1300 | 

SMILES | IC50 (L1210) [nM] | IC50 (Thymidylate synthase) [nM] | other results
C#CCN(Cc1ccc2nc(CNC(C)=O)[nH]c(=O)c2c1)c1ccc(C(=O)N[C@@H](CCC(=O)O)C(=O)O)cc1 | 125000 |  | 
Cc1ccc2nc(C(F)(F)F)nc(O)c2c1 |  |  | pKa [3]: < 2; pKa [2]: 5.9
CCN(Cc1ccc2nc(CF)[nH]c(=O)c2c1)c1ccc(C(=O)N[C@@H](CCC(=O)O)C(=O)O)cc1 | 700 |  | 
O=C(O)CC[C@H](NC(=O)c1ccc(N(CCF)Cc2ccc3nc(CO)[nH]c(=O)c3c2)cc1)C(=O)O | 20000 |  | 
C#CCN(Cc1ccc2nc(CF)[nH]c(=O)c2c1)c1ccc(C(=O)N[C@@H](CCC(=O)O)C(=O)O)cc1 | 370 |  | 
C#CCN(Cc1ccc2nc(C(C)C)[nH]c(=O)c2c1)c1ccc(C(=O)N[C@@H](CCC(=O)O)C(=O)O)cc1 | 48000 |  | 
C#CCN(Cc1ccc2nc[nH]c(=O)c2c1)c1ccc(C(=O)N[C@@H](CCC(=O)O)C(=O)O)cc1 | 400 |  | 
CN(Cc1ccc2nc(CO)[nH]c(=O)c2c1)c1ccc(C(=O)N[C@@H](CCC(=O)O)C(=O)O)cc1 | 13000 |  | 
C#CCN(Cc1ccc2nc(N)[nH]c(=O)c2c1)c1ccc(C(=O)N[C@@H](CCC(=O)O)C(=O)O)cc1 | 3400 |  | solubility [4]: 70 µg/mL (≈ 0.147 mM)
C#CCN(Cc1ccc2nc(C)[nH]c(=O)c2c1)c1ccc(C(=O)N[C@@H](CCC(=O)O)C(=O)O)cc1 | 90 |  | solubility [4]: 3200 µg/mL (≈ 6.72 mM)
C#CCN(Cc1ccc2nc(-c3ccccc3)[nH]c(=O)c2c1)c1ccc(C(=O)N[C@@H](CCC(=O)O)C(=O)O)cc1 | > 100000 |  | 
CN(Cc1ccc2nc(CF)[nH]c(=O)c2c1)c1ccc(C(=O)N[C@@H](CCC(=O)O)C(=O)O)cc1 | 3 | 2920 | 
C#CCN(Cc1ccc2nc(C(F)(F)F)[nH]c(=O)c2c1)c1ccc(C(=O)N[C@@H](CCC(=O)O)C(=O)O)cc1 | > 100000 |  | 
C#CCN(Cc1ccc2nc(CSc3ncccn3)[nH]c(=O)c2c1)c1ccc(C(=O)N[C@@H](CCC(=O)O)C(=O)O)cc1 | 100000 |  | 
C=CCN(Cc1ccc2nc(C)[nH]c(=O)c2c1)c1ccc(C(=O)N[C@@H](CCC(=O)O)C(=O)O)cc1 | 170 | 480 | 
O=C(O)CC[C@H](NC(=O)c1ccc(N(CCF)Cc2ccc3nc(CF)[nH]c(=O)c3c2)cc1)C(=O)O | 1200 |  | 
Cc1nc2ccc(CN(CCF)c3ccc(C(=O)N[C@@H](CCC(=O)O)C(=O)O)cc3)cc2c(=O)[nH]1 | 400 | 240 | 
Cc1ccc2nc(CF)nc(O)c2c1 |  |  | pKa [3]: < 2; pKa [2]: 8.5
